Consider 1 molecule from ChEMBL document CHEMBL2331203, “Optimization of inhibitors of the tyrosine kinase EphB4. 2. Cellular potency improvement and binding mode validation by X-ray crystallography” (J Med Chem, 2013).

The target of series [1] is Tyrosine-protein kinase ABL1 (Homo sapiens, UniProt P00519).
Description: Inhibition of Abl (unknown origin) using [gamma-33P]ATP after 30 mins by radiometric assay
Series [2] can be described thus: Cytotoxicity against human GXF251L cells after 4 days by propidium iodide staining. The conditions noted are these: GXF 251L, 96 h.
Series [3] has as its target Receptor-interacting serine/threonine-protein kinase 2 (Homo sapiens) (UniProt O43353). Briefly: Inhibition of human RIPK2 using [gamma-33P]ATP assessed as residual activity at 3 uM after 30 mins by radiometric assay.
Series [4] in a line: Cytotoxicity against human PAXF 1657L cells after 4 days by propidium iodide staining. The conditions noted are these: 96 h.
Series [5] concerns the target T1, Ephrin type-B receptor 4 (Homo sapiens, UniProt P54760).
T1 sequence (P54760 whole entry): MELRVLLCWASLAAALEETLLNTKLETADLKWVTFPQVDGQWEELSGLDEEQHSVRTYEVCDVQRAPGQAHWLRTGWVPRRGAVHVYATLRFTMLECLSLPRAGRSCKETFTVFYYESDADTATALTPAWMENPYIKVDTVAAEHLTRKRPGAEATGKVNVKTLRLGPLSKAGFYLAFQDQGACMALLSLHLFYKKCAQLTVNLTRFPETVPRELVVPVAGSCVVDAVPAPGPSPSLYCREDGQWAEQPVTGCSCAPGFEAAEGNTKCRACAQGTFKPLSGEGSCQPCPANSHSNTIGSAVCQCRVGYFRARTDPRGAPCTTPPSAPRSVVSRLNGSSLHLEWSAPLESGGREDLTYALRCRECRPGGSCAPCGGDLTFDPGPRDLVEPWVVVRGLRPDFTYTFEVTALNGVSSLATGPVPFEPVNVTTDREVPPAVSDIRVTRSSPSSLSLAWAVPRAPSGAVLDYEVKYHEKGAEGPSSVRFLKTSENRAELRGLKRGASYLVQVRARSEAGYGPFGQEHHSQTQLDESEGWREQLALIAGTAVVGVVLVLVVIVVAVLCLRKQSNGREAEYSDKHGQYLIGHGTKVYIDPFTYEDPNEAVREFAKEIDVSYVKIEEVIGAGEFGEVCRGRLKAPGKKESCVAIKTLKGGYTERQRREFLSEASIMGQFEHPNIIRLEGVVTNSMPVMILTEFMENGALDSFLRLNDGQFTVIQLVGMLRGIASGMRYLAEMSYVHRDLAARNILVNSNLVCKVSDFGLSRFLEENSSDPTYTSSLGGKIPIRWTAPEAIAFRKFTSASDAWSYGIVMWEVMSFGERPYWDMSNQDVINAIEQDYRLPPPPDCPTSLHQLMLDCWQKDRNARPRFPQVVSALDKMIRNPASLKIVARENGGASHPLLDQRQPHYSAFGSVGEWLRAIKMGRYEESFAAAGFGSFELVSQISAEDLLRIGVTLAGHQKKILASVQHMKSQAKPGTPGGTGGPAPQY
Description: Inhibition of human myc-tagged full length EphB4 expressed in MEF cells assessed as inhibition of ephrinB2-Fc-induced autophosphorylation incubated for 90 mins prior to ephrinB2-Fc-induction measured after 2 hrs by sandwich ELISA

For series [6], the target named is T2, Ephrin type-B receptor 3 (Homo sapiens) (UniProt P54753).
T2 sequence (whole entry): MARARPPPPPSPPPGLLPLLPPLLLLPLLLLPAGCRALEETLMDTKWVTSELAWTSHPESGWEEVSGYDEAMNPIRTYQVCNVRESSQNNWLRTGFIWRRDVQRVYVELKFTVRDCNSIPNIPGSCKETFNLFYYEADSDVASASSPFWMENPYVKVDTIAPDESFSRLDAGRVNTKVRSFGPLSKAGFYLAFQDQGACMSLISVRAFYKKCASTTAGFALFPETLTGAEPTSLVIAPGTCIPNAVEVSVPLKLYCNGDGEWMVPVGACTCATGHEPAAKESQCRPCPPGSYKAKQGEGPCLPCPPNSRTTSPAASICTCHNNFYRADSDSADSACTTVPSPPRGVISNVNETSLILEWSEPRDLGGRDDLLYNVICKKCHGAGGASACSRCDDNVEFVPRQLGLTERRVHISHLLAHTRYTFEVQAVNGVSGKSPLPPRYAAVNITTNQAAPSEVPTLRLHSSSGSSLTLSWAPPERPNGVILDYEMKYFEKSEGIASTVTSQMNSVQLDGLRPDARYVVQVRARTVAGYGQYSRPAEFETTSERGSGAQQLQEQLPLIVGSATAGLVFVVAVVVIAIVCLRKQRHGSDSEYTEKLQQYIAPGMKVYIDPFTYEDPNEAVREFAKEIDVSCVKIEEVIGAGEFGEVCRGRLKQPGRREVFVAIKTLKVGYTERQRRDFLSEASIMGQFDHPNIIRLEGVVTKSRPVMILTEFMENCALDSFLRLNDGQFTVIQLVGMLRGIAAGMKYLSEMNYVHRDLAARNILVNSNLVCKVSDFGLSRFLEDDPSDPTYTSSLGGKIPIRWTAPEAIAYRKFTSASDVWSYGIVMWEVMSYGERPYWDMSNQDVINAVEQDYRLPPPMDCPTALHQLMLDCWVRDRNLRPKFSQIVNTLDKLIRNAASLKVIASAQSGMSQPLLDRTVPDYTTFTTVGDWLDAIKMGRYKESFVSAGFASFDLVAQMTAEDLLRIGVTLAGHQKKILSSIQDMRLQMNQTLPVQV
Briefly: Inhibition of human Eph-B3 using [gamma-33P]ATP assessed as residual activity at 3 uM after 30 mins by radiometric assay.

In series [7] the target is Proto-oncogene tyrosine-protein kinase Src (Homo sapiens, UniProt P12931).
Description: Inhibition of Src (unknown origin) using [gamma-33P]ATP after 30 mins by radiometric assay
The target of series [8] is Tyrosine-protein kinase Lck (Homo sapiens, UniProt P06239). Briefly: Inhibition of Lck (unknown origin) using [gamma-33P]ATP after 30 mins by radiometric assay.
Series [9] is described as follows: in vitro. The conditions noted are these: human, Caco-2.
Description: Efflux ratio of apparent permeability from basolateral to apical side to apical to basolateral side in human Caco2 cells
Series [10] deals with T3, Tyrosine-protein kinase Yes (Homo sapiens, UniProt P07947). Briefly: Inhibition of Yes1 (unknown origin) using [gamma-33P]ATP after 30 mins by radiometric assay.
Target sequence in this assay (P07947 whole entry): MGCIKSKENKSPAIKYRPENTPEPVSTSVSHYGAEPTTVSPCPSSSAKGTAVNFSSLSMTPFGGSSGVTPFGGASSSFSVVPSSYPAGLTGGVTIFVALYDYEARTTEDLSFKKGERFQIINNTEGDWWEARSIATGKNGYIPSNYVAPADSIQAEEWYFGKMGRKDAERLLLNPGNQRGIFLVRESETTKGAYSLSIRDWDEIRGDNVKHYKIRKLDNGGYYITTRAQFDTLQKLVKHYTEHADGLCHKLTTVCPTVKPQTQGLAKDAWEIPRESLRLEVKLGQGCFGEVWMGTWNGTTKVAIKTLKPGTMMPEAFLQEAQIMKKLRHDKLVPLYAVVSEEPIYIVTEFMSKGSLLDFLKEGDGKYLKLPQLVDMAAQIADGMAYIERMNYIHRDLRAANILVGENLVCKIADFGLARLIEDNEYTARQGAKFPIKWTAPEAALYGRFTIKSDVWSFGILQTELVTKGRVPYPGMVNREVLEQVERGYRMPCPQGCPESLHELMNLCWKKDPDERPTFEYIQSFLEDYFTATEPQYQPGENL
Series [11] has as its system DU-145. Briefly: Cytotoxicity against human PRXF DU145 cells after 4 days by propidium iodide staining. The conditions noted are these: DU-145, 96 h.
Series [12] addresses T3, Tyrosine-protein kinase Yes. Description: Inhibition of human Yes1 using [gamma-33P]ATP assessed as residual activity at 3 uM after 30 mins by radiometric assay.
Target sequence in this assay (P07947 2-543 limits assumed): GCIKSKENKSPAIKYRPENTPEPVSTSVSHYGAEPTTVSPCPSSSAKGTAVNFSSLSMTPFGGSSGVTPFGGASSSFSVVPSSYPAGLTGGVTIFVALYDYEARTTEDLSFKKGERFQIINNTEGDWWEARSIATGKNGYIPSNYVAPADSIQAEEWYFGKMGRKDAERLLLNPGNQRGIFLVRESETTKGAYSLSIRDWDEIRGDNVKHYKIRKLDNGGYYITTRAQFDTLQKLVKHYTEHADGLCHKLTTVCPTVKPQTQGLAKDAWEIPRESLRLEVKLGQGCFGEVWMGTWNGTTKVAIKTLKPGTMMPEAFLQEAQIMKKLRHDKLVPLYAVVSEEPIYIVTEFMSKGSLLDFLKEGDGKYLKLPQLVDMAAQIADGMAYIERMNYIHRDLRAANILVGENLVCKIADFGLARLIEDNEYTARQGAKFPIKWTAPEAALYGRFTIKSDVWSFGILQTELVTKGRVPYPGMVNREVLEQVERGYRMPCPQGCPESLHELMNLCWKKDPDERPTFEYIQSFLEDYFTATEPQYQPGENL
Series [13] in a line: Cytotoxicity against human CXF 1103L cells after 4 days by propidium iodide staining. The conditions noted are these: 96 h.
For series [14], the target named is T1, Ephrin type-B receptor 4. The source holds these as a separate data set.
Description: Inhibition of EphB4 (unknown origin) transfected in CHO cells using [gamma-33P]ATP by radiometric assay
For series [15], the target named is T1, Ephrin type-B receptor 4. Briefly: Inhibition of EphB4 (unknown origin) transfected in CHO cells using Z'-LYTE TYR-1 peptide as substrate after 2 hrs by FRET assay. Format: cell-based.

pIC50: −log10 of the molar value.

Sequence of Tyrosine-protein kinase Lck (P06239 whole entry): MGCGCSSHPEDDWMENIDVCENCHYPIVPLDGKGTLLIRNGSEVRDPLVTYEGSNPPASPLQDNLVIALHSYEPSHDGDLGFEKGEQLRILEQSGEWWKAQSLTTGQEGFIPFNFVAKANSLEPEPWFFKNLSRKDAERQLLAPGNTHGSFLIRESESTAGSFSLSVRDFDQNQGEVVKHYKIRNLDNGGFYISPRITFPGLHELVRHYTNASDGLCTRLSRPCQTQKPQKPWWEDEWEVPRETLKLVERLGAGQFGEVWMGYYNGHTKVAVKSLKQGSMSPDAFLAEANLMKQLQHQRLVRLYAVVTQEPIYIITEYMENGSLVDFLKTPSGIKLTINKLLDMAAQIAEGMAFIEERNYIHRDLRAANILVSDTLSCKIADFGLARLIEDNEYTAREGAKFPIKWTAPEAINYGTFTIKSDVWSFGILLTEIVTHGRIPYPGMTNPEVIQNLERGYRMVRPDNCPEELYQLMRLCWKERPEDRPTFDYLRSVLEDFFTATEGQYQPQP
Sequence of Tyrosine-protein kinase ABL1 (P00519 whole entry): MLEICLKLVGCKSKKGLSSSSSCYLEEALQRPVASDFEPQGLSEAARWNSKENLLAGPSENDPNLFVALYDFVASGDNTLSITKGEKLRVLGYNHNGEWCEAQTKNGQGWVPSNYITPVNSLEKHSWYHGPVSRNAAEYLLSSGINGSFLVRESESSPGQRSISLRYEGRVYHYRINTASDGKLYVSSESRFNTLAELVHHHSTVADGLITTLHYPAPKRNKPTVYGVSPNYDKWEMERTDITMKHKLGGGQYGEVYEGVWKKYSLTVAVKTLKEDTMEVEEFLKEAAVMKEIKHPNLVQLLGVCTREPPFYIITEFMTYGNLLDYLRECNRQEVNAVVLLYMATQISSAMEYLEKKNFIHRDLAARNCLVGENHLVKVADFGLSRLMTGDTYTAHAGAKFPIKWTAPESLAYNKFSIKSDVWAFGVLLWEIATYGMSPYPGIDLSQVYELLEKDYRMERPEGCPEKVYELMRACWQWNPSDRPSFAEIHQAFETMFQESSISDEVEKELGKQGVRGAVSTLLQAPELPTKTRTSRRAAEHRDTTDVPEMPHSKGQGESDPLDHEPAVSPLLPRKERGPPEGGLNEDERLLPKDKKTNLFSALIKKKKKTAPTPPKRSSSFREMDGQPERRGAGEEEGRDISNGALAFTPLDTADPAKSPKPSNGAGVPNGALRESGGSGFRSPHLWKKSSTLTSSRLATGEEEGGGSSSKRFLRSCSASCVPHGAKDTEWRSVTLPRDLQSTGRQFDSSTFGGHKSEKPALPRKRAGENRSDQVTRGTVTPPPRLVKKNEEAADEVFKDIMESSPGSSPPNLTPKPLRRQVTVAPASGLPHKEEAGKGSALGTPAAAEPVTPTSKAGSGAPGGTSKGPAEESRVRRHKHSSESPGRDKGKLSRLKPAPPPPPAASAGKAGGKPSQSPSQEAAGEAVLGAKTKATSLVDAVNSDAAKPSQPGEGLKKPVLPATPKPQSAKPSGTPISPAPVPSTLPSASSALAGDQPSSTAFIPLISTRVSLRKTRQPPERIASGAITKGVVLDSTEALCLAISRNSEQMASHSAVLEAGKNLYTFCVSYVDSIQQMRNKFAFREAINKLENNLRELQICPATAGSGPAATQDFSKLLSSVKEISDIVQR
Sequence of Receptor-interacting serine/threonine-protein kinase 2 (Homo sapiens) (O43353 whole entry): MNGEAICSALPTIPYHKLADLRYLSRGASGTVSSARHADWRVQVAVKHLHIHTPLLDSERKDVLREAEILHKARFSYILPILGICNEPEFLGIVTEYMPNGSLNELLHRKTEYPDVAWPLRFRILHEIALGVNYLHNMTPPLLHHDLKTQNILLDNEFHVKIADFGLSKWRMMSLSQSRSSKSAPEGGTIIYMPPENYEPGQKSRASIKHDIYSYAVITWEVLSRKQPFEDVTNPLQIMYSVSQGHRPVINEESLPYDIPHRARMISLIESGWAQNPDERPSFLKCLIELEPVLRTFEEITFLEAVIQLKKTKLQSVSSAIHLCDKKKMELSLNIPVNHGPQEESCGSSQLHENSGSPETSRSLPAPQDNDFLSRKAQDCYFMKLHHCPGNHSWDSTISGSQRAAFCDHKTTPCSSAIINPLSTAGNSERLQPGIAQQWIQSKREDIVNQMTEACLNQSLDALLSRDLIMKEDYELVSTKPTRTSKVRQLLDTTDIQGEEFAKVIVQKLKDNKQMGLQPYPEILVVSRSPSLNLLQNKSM
Sequence of Proto-oncogene tyrosine-protein kinase Src (P12931 2-536 limits assumed): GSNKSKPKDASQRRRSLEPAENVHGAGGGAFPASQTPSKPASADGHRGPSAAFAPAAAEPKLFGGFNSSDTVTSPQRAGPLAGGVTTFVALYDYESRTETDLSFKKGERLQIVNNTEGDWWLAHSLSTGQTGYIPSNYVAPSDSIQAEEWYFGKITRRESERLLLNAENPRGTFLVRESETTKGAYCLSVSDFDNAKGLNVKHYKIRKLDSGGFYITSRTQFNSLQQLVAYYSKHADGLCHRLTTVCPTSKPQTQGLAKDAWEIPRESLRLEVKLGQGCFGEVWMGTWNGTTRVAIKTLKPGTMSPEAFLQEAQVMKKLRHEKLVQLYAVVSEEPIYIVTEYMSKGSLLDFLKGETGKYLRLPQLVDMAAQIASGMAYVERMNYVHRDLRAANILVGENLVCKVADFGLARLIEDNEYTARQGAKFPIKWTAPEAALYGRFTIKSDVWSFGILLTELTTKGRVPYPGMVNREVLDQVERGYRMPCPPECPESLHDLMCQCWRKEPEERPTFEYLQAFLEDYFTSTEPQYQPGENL

With `CCCCn1c(-c2ccccc2C)cn2c3c(=O)[nH]c(=O)n(C)c3nc12`, the pIC50 (usually the IC50 on a negative log10 scale, so that one unit is a factor of ten) is 6.24 in series [1]; 4.84 in series [2]; 5.09 in series [4]; 7.30 in [5]; 7.15 in series [7]; 6.31 in [8]. Further, the pIC50 is 6.55 in series [10]; 4.95 in series [11]; 5.34 in series [13]; 7.09 in series [14]; 7.25 in series [15]. In addition, the Activity in series [3] turned out to be 12%; in [6] it was 13%; in [12], 14%. The efflux ratio (usually the permeability from basolateral to apical divided by that in the opposite direction, in the common usage) in series [9] worked out at 0.7.
